Test results taken from PMC11387234, “Identification of novel inhibitors of the transcriptional coactivator MRTF-A for HCC therapy” (Molecular Therapy Oncology, 2024).

Assays:
TRPM7 = TRPM7 (Mus musculus, UniProt Q923J1); experiment: Aequorin-based Ca2+ influx assay for TRPM7 inhibition; type: cell-based; details: for Hill slopes for TRPM7 inhibition: Ca2+ influx assay, logistic equation fits, n = 3; for TRPM7 affinity compared to NS: relative to NS8593 (Figure 1C)
Description: HEK293T cells were transfected with 2 μg TRPM7 plasmid DNA and 0.1 μg pG5A plasmid DNA. After 24 h, the cells were washed with Mg^2+-free HEPES-buffered saline (HBS) containing 140 mM NaCl, 5.4 mM KCl, 0.5 mM CaCl2, 5 mM HEPES (pH 7.4), and 10 mM glucose and resuspended in Mg^2+-free HBS. After 30 min of incubation with 5 μM coelenterazine (Biaffin) at room temperature to reconstitute the aequorin, cells were washed two times by centrifugation at 2,000 rpm for 5 min (Heraeus Pico 17 microcentrifuge, Thermo Fisher Scientific). Then, they were resuspended in Mg^2+-free HBS and plated into 96-well plates. Luminescence was detected at room temperature using a CLARIOstar microplate reader (BMG Labtech). CaCl2-containing Mg^2+-free HBS was injected in the presence or absence of the inhibitors to increase the extracellular Ca^2+ concentration to 5 mM. Cell lysis with 0.1% (v/v) Triton X-100 in the Mg^2+-free HBS was used to terminate the experiment, and total bioluminescence was measured. The analysis of the bioluminescence rates (counts/s) was done in 1-s intervals and calibrated as [Ca^2+]i values using the following equation: p[Ca^2+]i=0,332588(−log(k))+5,5593 k represents the rate of aequorin consumption.
The following equation was used to determine the IC50 values of the inhibitors: E(c)=Emin+[…]/1+c^h/IC50^h
E(c) is the functional effect at the concentration c of the inhibitor, Emin is the minimal effect, Emax is the maximal effect, IC50 is the concentration of the inhibitor that produces the half-maximal effect, and h is the Hill coefficient. GraphPad Prism 8.4.0 was used for fitting.

SRF = SRF reporter gene (5×SRE-luciferase) assay; type: cell-based; details: HuH7 cells, 24 h; for SRF activity (5×SRE-luciferase): 30 μM
Description: HuH7 cells were seeded in a 12-well plate and transiently transfected with 0.25 μg 5×SRE and 0.15 μg Renilla luciferase simian virus 40 (SV40) promoter reporter as an internal control. The next day, cells were treated with inhibitors, as indicated in the figure legends, and the Dual-Luciferase Reporter Assay System (Promega, Madison, Wisconsin, USA) and the BioFix Lumi-10 (Macherey-Nagel, Düren, Germany) were used. The firefly luciferase activity was normalized to the Renilla luciferase activity to compensate for divergent transfection efficiencies.

MRTF-A = experiment: Immunofluorescence of MRTF-A nuclear localization; type: cell-based
Description: Cells were fixated by a 10-min incubation with 4% paraformaldehyde in PBS. To permeabilize the cells, 0.2% Triton X-100 in PBS was used. Blocking was done with 1% BSA in PBS for 30 min at 37°C, followed by incubation with the respective primary antibodies (Table S4) for 1 h at room temperature and the secondary Alexa Fluor 488-coupled antibody (Invitrogen) (Table S5). The nucleus was stained with DAPI (Sigma-Aldrich). Images were taken using a fluorescence microscope (Nikon).

HuH7 cells [1] = experiment: Matrigel invasion assay; type: cell-based; details: 30 μM, 20 h
Description: The cell invasion assay was performed using Corning BioCoat Matrigel Invasion Chambers (Corning, Tewksbury, MA, USA) according to the manufacturer’s instructions. 2.5 × 10^4 cells per well were seeded and incubated for 20 h at 37°C. The invaded cells were fixed with methanol, stained with crystal violet, and counted under a light microscope (Carl Zeiss, Oberkochen, Germany).

TSPAN5 = experiment: Immunoblotting for TSPAN5; type: cell-based; details: HuH7 cells
Description: Proteins were denatured by boiling in Laemmli buffer at 95°C. According to their molecular weight, the proteins were separated by SDS-PAGE for 2 h at 100 V using the Bio-Rad Western Blot System (Bio-Rad, Hercules, California, USA) and the power supply peQPOWER 300 (Peqlab Biotechnology, Erlangen, Germany). The proteins were then transferred onto a polyvinylidene fluoride membrane (Merck, Darmstadt, Germany), which was activated in 100% methanol and equilibrated in a transfer buffer. The transfer was done at 350 mA for approximately 2 h. To avoid non-specific protein binding, the membrane was blocked with 5% milk powder in TBS-T. Afterward, the membrane was incubated over night at 4°C with the primary (Table S2) and the respective secondary antibodies for 1 h at room temperature (Table S3). Both was done with gentle shaking. The proteins were detected via chemiluminescence in a luminescent imager (ChemiDoc Imaging System, Bio-Rad).

RhoA-TRPM7 interaction = target: T1, RhoA-TRPM7 interaction (Homo sapiens, UniProt Q96QT4); experiment: In situ proximity ligation assay for endogenous TRPM7 and RhoA; type: cell-based; details: HuH7 cells, 30 μM, 6 h
T1 construct: proximity ligation assay (PLA) for endogenous TRPM7 and RhoA in HuH7 cells; endogenous in cells; host or cells: HuH7
T1 sequence (Q96QT4 whole entry): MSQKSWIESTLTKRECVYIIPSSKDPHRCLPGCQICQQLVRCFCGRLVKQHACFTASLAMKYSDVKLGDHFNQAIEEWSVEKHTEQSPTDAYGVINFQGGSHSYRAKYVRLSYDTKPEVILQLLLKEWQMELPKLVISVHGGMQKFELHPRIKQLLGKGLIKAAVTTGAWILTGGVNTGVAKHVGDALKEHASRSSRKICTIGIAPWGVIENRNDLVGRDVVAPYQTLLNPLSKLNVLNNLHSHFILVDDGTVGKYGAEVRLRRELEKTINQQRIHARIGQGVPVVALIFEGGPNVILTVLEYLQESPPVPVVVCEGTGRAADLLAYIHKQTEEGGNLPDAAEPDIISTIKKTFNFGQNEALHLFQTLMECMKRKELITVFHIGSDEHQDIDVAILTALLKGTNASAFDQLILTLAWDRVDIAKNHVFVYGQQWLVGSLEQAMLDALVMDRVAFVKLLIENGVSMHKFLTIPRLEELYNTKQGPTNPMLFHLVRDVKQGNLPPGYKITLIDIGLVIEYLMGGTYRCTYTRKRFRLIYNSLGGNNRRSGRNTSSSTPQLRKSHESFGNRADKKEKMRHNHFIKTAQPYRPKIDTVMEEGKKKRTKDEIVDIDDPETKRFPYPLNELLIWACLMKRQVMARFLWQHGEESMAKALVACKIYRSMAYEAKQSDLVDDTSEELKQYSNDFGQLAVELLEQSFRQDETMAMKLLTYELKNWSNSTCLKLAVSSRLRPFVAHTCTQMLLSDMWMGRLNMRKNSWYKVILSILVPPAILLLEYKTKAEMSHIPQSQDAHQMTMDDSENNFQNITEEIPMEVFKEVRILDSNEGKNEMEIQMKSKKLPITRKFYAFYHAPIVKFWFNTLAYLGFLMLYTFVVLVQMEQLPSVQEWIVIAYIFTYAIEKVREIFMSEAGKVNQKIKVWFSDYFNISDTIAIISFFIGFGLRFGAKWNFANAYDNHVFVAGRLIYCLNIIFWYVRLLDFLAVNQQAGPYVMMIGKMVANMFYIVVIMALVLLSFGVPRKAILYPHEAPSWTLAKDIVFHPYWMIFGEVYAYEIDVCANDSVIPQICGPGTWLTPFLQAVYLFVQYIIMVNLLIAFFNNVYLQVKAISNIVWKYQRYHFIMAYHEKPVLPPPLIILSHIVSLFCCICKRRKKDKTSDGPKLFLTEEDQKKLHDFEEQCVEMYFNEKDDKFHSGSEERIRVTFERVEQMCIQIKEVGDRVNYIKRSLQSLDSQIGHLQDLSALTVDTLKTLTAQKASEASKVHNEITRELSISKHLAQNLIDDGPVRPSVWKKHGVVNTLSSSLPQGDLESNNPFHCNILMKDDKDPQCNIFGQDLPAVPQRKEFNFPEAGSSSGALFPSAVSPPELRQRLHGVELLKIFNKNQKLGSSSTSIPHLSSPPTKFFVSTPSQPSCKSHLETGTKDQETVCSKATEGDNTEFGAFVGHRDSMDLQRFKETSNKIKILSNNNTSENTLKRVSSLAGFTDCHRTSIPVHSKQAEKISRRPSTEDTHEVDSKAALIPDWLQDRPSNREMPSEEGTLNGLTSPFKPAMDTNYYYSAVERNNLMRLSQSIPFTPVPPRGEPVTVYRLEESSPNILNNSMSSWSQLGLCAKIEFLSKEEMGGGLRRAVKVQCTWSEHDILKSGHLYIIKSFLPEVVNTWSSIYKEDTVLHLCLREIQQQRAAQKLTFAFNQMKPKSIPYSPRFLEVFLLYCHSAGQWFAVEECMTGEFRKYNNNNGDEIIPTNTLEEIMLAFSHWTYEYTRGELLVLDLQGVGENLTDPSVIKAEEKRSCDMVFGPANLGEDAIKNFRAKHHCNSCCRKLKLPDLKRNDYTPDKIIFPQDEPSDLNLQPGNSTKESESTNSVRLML
Description: The DuoLink In situ Red Starter Kit Mouse/Rabbit (Sigma-Aldrich, Merck) was used according to the manufacturer’s protocol for DuoLink In Situ Solutions (Sigma-Aldrich, Merck). Anti-TRPM7/TRPM6 (Abcam, Cambridge, UK), anti-RhoA (NewEast Bioscience, Malvern, PA, USA), anti-MRTF-A (Santa Cruz Biotechnology, Santa Cruz, CA, USA), and anti-Filamin A (Thermo Fisher Scientific, Schwerte, Germany) antibodies were used as primary antibodies for incubation (Table S4). Images were recorded with a fluorescence microscope (Nikon, Düsseldorf, Germany).

HuH7 cells [2] = experiment: SA-β-Gal staining (cellular senescence) in HuH7 cells; type: cell-based; details: HuH7 cells
Description: Cellular senescence of treated cells was determined using the Senescence-β-galactosidase staining kit according to the manufacturer’s instructions (Cell Signaling Technology, Danvers, MA, USA). 300 cells were counted. The ratio stained to unstained cells were used to calculate the percentage of SA-β-gal-positive cells.

SK3 channels = tested on: SK3 channels; parameters: method as in Sørensen et al. 22; details: relative to NS8593 (Figure 1C); ref Sørensen et al. 22; cited from earlier work
HuH7 cells [3] = experiment: Cell proliferation assay (cell counting) in HuH7 cells; type: cell-based; details: for Inhibitory effects on HCC proliferation as compared to inhibitor 10: 10 μM, 5 days; for Concentration sufficient to cease HCC cell proliferation: titration 10, 7.5, 5, 2.5 μM
Description: (§1) Cells were seeded and counted every 24 h for 5 days by using a Neubauer counting chamber.

HuH6 cells = experiment: Cell proliferation assay (cell counting) in HuH6 cells; type: cell-based
Description: as §1

Sequence of TRPM7 (Q923J1 whole entry): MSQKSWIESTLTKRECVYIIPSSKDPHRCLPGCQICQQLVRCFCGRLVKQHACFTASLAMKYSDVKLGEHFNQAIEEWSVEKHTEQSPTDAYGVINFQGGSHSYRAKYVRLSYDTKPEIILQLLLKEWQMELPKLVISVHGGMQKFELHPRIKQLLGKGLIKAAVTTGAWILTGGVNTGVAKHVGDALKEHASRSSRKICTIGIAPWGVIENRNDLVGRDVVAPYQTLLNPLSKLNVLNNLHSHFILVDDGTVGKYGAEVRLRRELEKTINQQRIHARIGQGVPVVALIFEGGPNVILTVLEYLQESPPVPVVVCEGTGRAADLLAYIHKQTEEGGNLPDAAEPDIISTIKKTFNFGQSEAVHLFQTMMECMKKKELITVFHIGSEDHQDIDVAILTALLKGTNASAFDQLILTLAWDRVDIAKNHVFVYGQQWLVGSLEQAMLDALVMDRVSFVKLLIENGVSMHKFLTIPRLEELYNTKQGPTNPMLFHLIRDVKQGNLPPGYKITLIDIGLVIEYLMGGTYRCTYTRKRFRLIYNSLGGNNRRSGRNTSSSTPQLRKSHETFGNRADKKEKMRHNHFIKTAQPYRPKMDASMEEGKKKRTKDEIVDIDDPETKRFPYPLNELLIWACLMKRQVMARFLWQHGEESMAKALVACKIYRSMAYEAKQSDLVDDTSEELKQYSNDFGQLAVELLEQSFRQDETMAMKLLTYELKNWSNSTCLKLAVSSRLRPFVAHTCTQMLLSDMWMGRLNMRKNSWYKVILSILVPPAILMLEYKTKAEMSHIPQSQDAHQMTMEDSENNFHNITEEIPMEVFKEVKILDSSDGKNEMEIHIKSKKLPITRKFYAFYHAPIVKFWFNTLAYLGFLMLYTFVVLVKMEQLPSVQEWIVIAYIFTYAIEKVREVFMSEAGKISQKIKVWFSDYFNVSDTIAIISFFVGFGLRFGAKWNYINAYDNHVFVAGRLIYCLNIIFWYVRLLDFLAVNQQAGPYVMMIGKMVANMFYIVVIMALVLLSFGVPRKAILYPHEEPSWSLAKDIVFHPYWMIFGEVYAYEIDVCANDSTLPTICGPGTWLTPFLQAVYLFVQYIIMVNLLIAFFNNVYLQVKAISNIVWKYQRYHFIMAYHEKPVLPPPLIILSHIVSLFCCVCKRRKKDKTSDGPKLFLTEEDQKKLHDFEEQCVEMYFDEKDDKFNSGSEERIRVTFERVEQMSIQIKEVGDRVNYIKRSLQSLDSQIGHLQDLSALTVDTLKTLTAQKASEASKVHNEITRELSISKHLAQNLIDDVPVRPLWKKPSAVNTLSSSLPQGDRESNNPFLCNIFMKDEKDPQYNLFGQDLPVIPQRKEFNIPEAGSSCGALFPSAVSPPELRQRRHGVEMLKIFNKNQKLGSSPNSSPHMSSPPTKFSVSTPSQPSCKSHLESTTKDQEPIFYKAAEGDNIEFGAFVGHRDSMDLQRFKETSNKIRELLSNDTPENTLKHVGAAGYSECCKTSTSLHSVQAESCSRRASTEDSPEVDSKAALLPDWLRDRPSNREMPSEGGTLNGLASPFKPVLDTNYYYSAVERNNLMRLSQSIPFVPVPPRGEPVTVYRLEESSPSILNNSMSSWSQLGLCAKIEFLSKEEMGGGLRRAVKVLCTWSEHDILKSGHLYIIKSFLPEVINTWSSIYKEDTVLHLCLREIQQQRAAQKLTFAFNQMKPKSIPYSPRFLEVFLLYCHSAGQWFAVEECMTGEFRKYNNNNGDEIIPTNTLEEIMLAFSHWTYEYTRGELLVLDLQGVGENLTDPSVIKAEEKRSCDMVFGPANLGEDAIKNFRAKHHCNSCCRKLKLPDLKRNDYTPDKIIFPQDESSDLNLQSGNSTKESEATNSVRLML

c1ccc2c(c1)CCCC2Nc1nc2ccccc2[nH]1 (stereo not drawn) [NS8593, reference compound]
Hill slopes for TRPM7 inhibition (TRPM7): -1.432

c1ccc(-c2cccc(Nc3nc4ccccc4[nH]3)c2)cc1 [compound 10]
SRF activity decreased to (SRF; 10 μM): 25%
Localization of endogenous MRTF-A (MRTF-A; HuH7 cells, 5 μM, 18 h): cytoplasmic

c1ccc2[nH]c(NC3CCCc4sccc43)nc2c1 (stereo not drawn) [compound 8]
Penetration of HuH7 cells into Matrigel (HuH7 cells [1]): strongly impaired
Hill slopes for TRPM7 inhibition (TRPM7): -1.210
TRPM7 affinity compared to NS (TRPM7): <NS
Reduction in SRF activity (SRF; 5 μM): 30%
SRF activity (5×SRE-luciferase) (SRF): strong decrease
Concentration required to significantly reduce TSPAN5 expression (TSPAN5): 20 µM
MRTF-A nuclear localization reduced to (MRTF-A; 30 μM, HuH7 and HuH6 cells (Figures 3B and S3A)): 12%
RhoA-TRPM7 interaction (PLA) (RhoA-TRPM7 interaction): inhibited RhoA-TRPM7 interaction
Concentration that significantly increases SA-β-Gal-positive cells (senescence induction) (HuH7 cells [2]): 20 µM
SK3 affinity compared to NS (SK3 channels): <NS

COc1ccc2c(c1)C(Nc1nc3ccccc3[nH]1)CCC2 (stereo not drawn) [compound 3]
Hill slopes for TRPM7 inhibition (TRPM7): -1.224
TRPM7 affinity compared to NS (TRPM7): <NS
SK3 affinity compared to NS (SK3 channels): =NS

Fc1ccc2c(c1)C(Nc1nc3ccccc3[nH]1)CCC2 (stereo not drawn) [compound 2]
Hill slopes for TRPM7 inhibition (TRPM7): -1.165
TRPM7 affinity compared to NS (TRPM7): <NS
SK3 affinity compared to NS (SK3 channels): >NS

c1ccc2c(c1)CCCC2Nc1nc2ccccc2[nH]1 (stereo not drawn) [compound 1]
Penetration of HuH7 cells into Matrigel (HuH7 cells [1]): strongly impaired
Hill slopes for TRPM7 inhibition (TRPM7; rNS): -1.370
TRPM7 affinity compared to NS (TRPM7): =NS
SRF activity (5×SRE-luciferase) (SRF): strong decrease
inhibition at 30 µM (MRTF-A; Homo sapiens, Huh-7, HuH7 cells, 30 μM (Figure 3B)): 50%
RhoA-TRPM7 interaction (PLA) (RhoA-TRPM7 interaction): inhibited RhoA-TRPM7 interaction
Concentration that significantly increases SA-β-Gal-positive cells (senescence induction) (HuH7 cells [2]): 20 µM
SK3 affinity compared to NS (SK3 channels): =NS

Cc1ccc2c(c1)C(Nc1nc3ccccc3[nH]1)CCC2 (stereo not drawn) [compound 4]
Hill slopes for TRPM7 inhibition (TRPM7): -1.123
TRPM7 affinity compared to NS (TRPM7): <NS
SK3 affinity compared to NS (SK3 channels): >NS

Clc1cc2c(cc1Cl)C(Nc1nc3ccccc3[nH]1)CCC2 (stereo not drawn) [compound 6]
Hill slopes for TRPM7 inhibition (TRPM7): -1.292
TRPM7 affinity compared to NS (TRPM7): =NS
SK3 affinity compared to NS (SK3 channels): >NS

Fc1ccc(-c2ccccc2Nc2nc3ccccc3[nH]2)cc1 [compound 13]
SRF reporter gene activity (SRF; 10 μM): remained largely unchanged

Fc1cccc(-c2cccc(Nc3nc4ccccc4[nH]3)c2)c1 [compound 16]
Effect on cell proliferation (HuH7 cells [3]; 10 μM (Figure 6C)): proliferation arrest
Inhibitory effects on HCC proliferation as compared to inhibitor 10 (HuH7 cells [3]): significantly improved
Concentration sufficient to cease HCC cell proliferation (HuH7 cells [3]): 2.5 µM
Effect on cell proliferation (HuH6 cells; 10 µM (Figure S5A)): proliferation arrest
Concentration at which SRF activity is significantly reduced (SRF): 2.5 µM
Concentration that significantly increases SA-β-Gal-positive cells (senescence induction) (HuH7 cells [2]): 2.5 µM

c1ccc2[nH]c(NC3CCCc4ccncc43)nc2c1 (stereo not drawn) [compound 7]
Effect on cell proliferation (HuH7 cells [3]; 30 μM NS, rNS, 2, 3, 7, 8, 10 μM 4, 5, 6, 5 days): decreased cell proliferation only marginally
Effect on cell proliferation (HuH6 cells; 30 µM NS8593, 2, 3, 7, 8, 10 µM 4, 5, 6, 5 days): decreased cell proliferation only marginally
Hill slopes for TRPM7 inhibition (TRPM7): -0.9579
TRPM7 affinity compared to NS (TRPM7): <NS
SK3 affinity compared to NS (SK3 channels): <NS

c1ccc(-c2ccccc2Nc2nc3ccccc3[nH]2)cc1 [compound 9]
SRF reporter gene activity (SRF; 10 μM): remained largely unchanged

CC(C)c1ccc(-c2cccc(Nc3nc4ccccc4[nH]3)c2)cc1 [compound 14]
Effect on cell proliferation (HuH7 cells [3]; 10 μM (Figure 6C)): proliferation arrest
Inhibitory effects on HCC proliferation as compared to inhibitor 10 (HuH7 cells [3]): significantly improved
Concentration sufficient to cease HCC cell proliferation (HuH7 cells [3]): 2.5 µM
Effect on cell proliferation (HuH6 cells; 10 µM (Figure S5A)): proliferation arrest
Concentration at which SRF activity is significantly reduced (SRF): 2.5 µM
